The values below come from PubChem BioAssay AID602334 (Sanford-Burnham Center for Chemical Genomics, 2012).

This assay deals with Neurotensin receptor type 2 (Homo sapiens) (UniProt O95665). As to the kind of experiment: NTR2 agonist activity for selectivity, SAR follow-up, selectivity assay for NTR1 agonist project, imaging, image-based, set 2 (AID 602334). The note with it: NTR2-expressing cells, image-based receptor agonism assay.

The structures appear in SMILES notation. Several values for one entry are separate records, joined by “and”; a condition that tells them apart may be missing. Equal values may be shown once. Activity calls are given as the source filed them. No rule for the calls is given here. Where only a bound is given, the exact number is not on record here.

Chain of Neurotensin receptor type 2 (Homo sapiens) (O95665 whole entry, looked up): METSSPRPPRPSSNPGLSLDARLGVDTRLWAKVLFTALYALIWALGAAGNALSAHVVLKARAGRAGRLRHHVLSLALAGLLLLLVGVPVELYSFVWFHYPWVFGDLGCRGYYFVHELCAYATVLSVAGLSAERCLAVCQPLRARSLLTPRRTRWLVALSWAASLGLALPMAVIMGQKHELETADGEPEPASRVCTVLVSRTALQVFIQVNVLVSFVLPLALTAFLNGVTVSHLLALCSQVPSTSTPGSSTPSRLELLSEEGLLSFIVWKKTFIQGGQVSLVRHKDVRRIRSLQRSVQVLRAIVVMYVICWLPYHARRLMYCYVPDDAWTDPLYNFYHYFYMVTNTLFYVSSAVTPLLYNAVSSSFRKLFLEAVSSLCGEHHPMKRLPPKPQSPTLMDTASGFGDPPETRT

As to `COc1cc2c3nnc(-c4ccc(F)cc4)c-3cn(Cc3ccccc3N(C)C)c2cc1OC`, the EC50 (usually the concentration that produces a half-maximal response) is 4.37 µM and 3.73 µM.

For `COc1cc2c3nnc(-c4ccc(Cl)cc4)c-3cn(Cc3ccccc3)c2cc1OC`, the EC50 was 8.47 µM.

`CCOc1ccc(-c2nnc3c4cc(OC)c(OC)cc4n(Cc4ccc(F)cc4)cc2-3)cc1`: the EC50 was > 80 µM (inactive).

As to `COc1cc2c3nnc(-c4ccc(F)cc4)c-3cn(Cc3cccc(C)c3)c2cc1OC`, the EC50 is 10.2 µM and 9.29 µM.

As to `COc1cc2c3nnc(-c4ccc(F)cc4)c-3cn(Cc3ccc(C)cc3)c2cc1OC`, the EC50 was 15 µM and 15.7 µM.

Take `CCOc1ccc(-c2nnc3c4cc(OC)c(OC)cc4n(Cc4ccccc4)cc2-3)cc1`: the EC50 was > 80 µM (inactive).

As for `COc1cccc(OC)c1-c1cc(C(=O)N[C@@H](CC(C)C)C(=O)OC(C)(C)C)nn1-c1ccnc2cc(Cl)ccc12`, the EC50 is > 80 µM (inactive).

`COc1cc2c3nnc(-c4ccc(F)cc4)c-3cn(Cc3ccc(F)cc3)c2cc1OC`: the EC50 result is “inactive”.

Turning to `COc1cc2c3nnc(-c4ccc(C)cc4)c-3cn(Cc3ccc(F)cc3)c2cc1OC`, the half-maximal effective concentration (EC50) was 9.08 µM.

As for `COc1cc2nc(C3CC3)nc(N3CCN(c4ccccc4Cl)CC3)c2cc1OC`, the EC50 is > 80 µM (inactive).

With `CCc1ccc(-c2nnc3c4cc(OC)c(OC)cc4n(Cc4ccc(F)cc4)cc2-3)cc1`, the EC50 result is “inactive”.

For `CCOc1ccccc1N1CCN(c2nc(C3CC3)nc3cc(OC)c(OC)cc23)CC1`, the EC50 was > 80 µM (inactive).

Take `COc1ccc2c3nnc(-c4ccc(C)cc4)c-3cn(Cc3ccccc3)c2c1`: the EC50 entry was “inactive”.

As for `COc1cccc(OC)c1-c1nc(C(=O)N[C@@H](CC(C)C)C(=O)O)cn1-c1cccc2ccccc12`, the EC50 was > 80 µM (inactive).

For the compound `COc1ccc(-c2nnc3c4cc(OC)c(OC)cc4n(Cc4ccccc4)cc2-3)cc1`, the EC50 result was “inactive”.

For `COc1cc2nc(CCN3CCN(c4ccccc4OC)CC3)nc(N3CCN(c4ccccc4OC)CC3)c2cc1OC`, the EC50 is > 80 µM (inactive).

For `Cc1ccc(Cn2cc3c(-c4ccc(C)c(C)c4)nnc-3c3cc4c(cc32)OCO4)cc1`, the EC50 entry was “inactive”.

With `COc1ccc2c3nnc(-c4ccc(C)cc4)c-3cn(Cc3ccc(C)cc3)c2c1`, the EC50 is > 80 µM (inactive).

Turning to `COc1cc2nc(C3CC3)nc(N3CCNCC3)c2cc1OC`, the EC50 is > 80 µM (inactive).

For `Cc1ccc(Cn2cc3c(-c4ccc(F)cc4)nnc-3c3cc4c(cc32)OCO4)cc1`, the EC50 was > 80 µM (inactive).

Regarding `COc1cc2nc(C3CCC3)nc(N3CCN(c4ccccc4F)CC3)c2cc1OC`, the EC50 is > 80 µM (inactive).

As to `COc1cc2c3nnc(-c4ccc(F)cc4)c-3cn(Cc3ccc(Cl)cc3)c2cc1OC`, the EC50 was 15.8 µM.

As to `COc1cc2nc(CC3CC3)nc(N3CCN(c4ccccc4OC)CC3)c2cc1OC`, the EC50 was > 80 µM (inactive).

On to `COc1cc2c3nnc(-c4ccc(F)cc4)c-3cn(Cc3ccc(C)cc3C)c2cc1OC`, for which the EC50 is 11 µM.

As for `COc1cc2nc(CCN(C)C)nc(N3CCN(c4ccccc4OC)CC3)c2cc1OC`, the EC50 is > 80 µM (inactive).

Consider `COc1cc2c3nnc(-c4ccc(C)c(C)c4)c-3cn(Cc3ccc(F)cc3)c2cc1OC`, for which the EC50 result is “inactive”.

For the compound `CC(C)C[C@H](NC(=O)c1cn(-c2ccnc3cc(Cl)ccc23)c(-c2c(Cl)cccc2Cl)n1)C(=O)O`, the EC50 is > 80 µM (inactive).

Consider `COc1cc2nc(C3CCC3)nc(N3CCN(c4ccccc4OC)CC3)c2cc1OC`, for which the EC50 is > 80 µM (inactive).

As to `COc1cc2nc(CC(C)C)nc(N3CCN(c4ccccc4OC)CC3)c2cc1OC`, the EC50 was > 80 µM (inactive).

As to `COc1ccc2nc(C3CC3)nc(N3CCN(c4ccccc4OC)CC3)c2c1`, the EC50 is > 80 µM (inactive).

Regarding `COc1ccc(N2CCN(c3nc(C4CCC4)nc4cc(OC)c(OC)cc34)CC2)c(OC)c1`, the EC50 was > 80 µM (inactive).

`COc1cc2nc(C3CC3)nc(N3CCN(S(=O)(=O)c4ccccc4)CC3)c2cc1OC`: the EC50 was > 80 µM (inactive).

`COc1cc2nc(C3CC3)nc(N3CCN(C(=O)c4ccccc4)CC3)c2cc1OC`: the EC50 is > 80 µM (inactive).

For the compound `COc1cc2nc(Cc3ccccc3)nc(N3CCN(c4ccccc4OC)CC3)c2cc1OC`, the EC50 was > 80 µM (inactive).

In the case of `COc1cc2c3nnc(-c4ccc(Cl)cc4)c-3cn(Cc3ccc(C)cc3)c2cc1OC`, the EC50 is > 80 µM (inactive).

On to `Cc1ccc(-c2nnc3c4cc5c(cc4n(Cc4ccc(F)cc4)cc2-3)OCO5)cc1`, for which the EC50 result was “inactive”.

With `Cc1cccc(C)c1-c1nc(C(=O)N[C@@H](CC(C)C)C(=O)O)cn1-c1ccnc2cc(Cl)ccc12`, the EC50 is > 80 µM (inactive).

On to `C=Cc1nc(N2CCN(c3ccccc3OC)CC2)c2cc(OC)c(OC)cc2n1`, for which the EC50 is > 80 µM (inactive).

As for `Cc1ccc(-c2nnc3c4cc5c(cc4n(Cc4ccccc4)cc2-3)OCO5)cc1C`, the EC50 was 1.78 µM.

With `COc1cc2c3nnc(-c4ccc(Cl)cc4)c-3cn(Cc3ccc(F)cc3)c2cc1OC`, the EC50 was 8.36 µM.

`COc1cc2nc(C3CCC3)nc(N3CCN(c4ccccc4)CC3)c2cc1OC`: the EC50 was > 80 µM (inactive).

`COc1cc2c3nnc(-c4ccc(F)cc4)c-3cn(Cc3ccccc3C)c2cc1OC`: the EC50 was 6.91 µM.

Regarding `COc1cc2nc(C3CCC3)nc(N3CCN(c4ccccc4C)CC3)c2cc1OC`, the EC50 is > 80 µM (inactive).

On to `Fc1ccc(Cn2cc3c(-c4ccc(Cl)cc4)nnc-3c3cc4c(cc32)OCO4)cc1`, for which the EC50 entry was “inactive”.

In the case of `COc1cc2nc(C3CC3)nc(N3CCN(Cc4ccc(C)cc4)CC3)c2cc1OC`, the EC50 is > 80 µM (inactive).

For `COc1cccc(OC)c1-c1cc(C(=O)N[C@@H](CC(C)C)C(=O)O)nn1-c1ccnc2cc(Cl)ccc12`, the EC50 was > 80 µM (inactive).

As for `COc1cc2nc(C3CCC3)nc(N3CCN(c4ccccn4)CC3)c2cc1OC`, the EC50 is > 80 µM (inactive).

As for `COc1ccc2c(c1)c1nnc(-c3ccc(F)cc3)c-1cn2Cc1ccccc1`, the EC50 is 17 µM.

Consider `COc1ccccc1-c1cc(C(=O)N[C@@H](CC(C)C)C(=O)O)nn1-c1ccnc2cc(Cl)ccc12`, for which the EC50 was > 80 µM (inactive).

Consider `COc1ccc2nc(C3CCC3)nc(N3CCN(c4ccccc4OC)CC3)c2c1`, for which the EC50 was > 80 µM (inactive).

With `COc1cc2nc(C3CCC3)nc(N3CCN(c4c(C)cccc4C)CC3)c2cc1OC`, the EC50 is > 80 µM (inactive).

In the case of `COc1cc2c3nnc(-c4ccc(C)cc4)c-3cn(Cc3ccc(C)cc3)c2cc1OC`, the EC50 was 12.7 µM.

Turning to `COc1cc2nc(C(C)C)nc(N3CCN(c4ccccc4OC)CC3)c2cc1OC`, the EC50 was > 80 µM (inactive).

For `COc1cccc(OC)c1-c1nc(C(=O)N[C@@H](CC(C)C)C(=O)O)cn1-c1ccnc2ccccc12`, the EC50 was > 80 µM (inactive).

As to `COc1cc2nc(C3CC3)nc(N3CCN(C(=O)OC(C)(C)C)CC3)c2cc1OC`, the EC50 is > 80 µM (inactive).

As for `COc1ccc2c(c1)c1nnc(-c3ccc(F)cc3)c-1cn2Cc1ccc(F)cc1`, the EC50 entry is “inactive”.

Turning to `COc1ccc2c3nnc(-c4ccc(C)cc4)c-3cn(Cc3ccc(F)cc3)c2c1`, the EC50 is > 80 µM (inactive).

For `COc1cc2c3nnc(-c4ccccc4)c-3cn(Cc3ccccc3)c2cc1OC`, the EC50 entry is “inactive”.

Consider `COc1cc2nc(C3CC3)nc(N3CCN(C(=O)c4ccccc4OC)CC3)c2cc1OC`, for which the EC50 was > 80 µM (inactive).

On to `Fc1ccc(-c2nnc3c4cc5c(cc4n(Cc4ccccc4)cc2-3)OCO5)cc1`, for which the EC50 is > 80 µM (inactive).

With `COc1cc2c3nnc(-c4ccc(C)c(C)c4)c-3cn(Cc3ccccc3)c2cc1OC`, the EC50 was > 80 µM (inactive).

In the case of `COc1ccccc1CN1CCN(c2nc(C3CC3)nc3cc(OC)c(OC)cc23)CC1`, the EC50 was > 80 µM (inactive).

Regarding `COc1cc2c3nnc(-c4ccccc4)c-3cn(Cc3ccc(F)cc3)c2cc1OC`, the EC50 was > 80 µM (inactive).

With `COc1ccc(-c2nnc3c4cc(OC)c(OC)cc4n(Cc4ccc(C)cc4)cc2-3)cc1`, the EC50 was 10.6 µM.

Turning to `COc1cc2nc(C3CCC3)nc(N3CCN(c4ccccc4Cl)CC3)c2cc1OC`, the EC50 is > 80 µM (inactive).

Regarding `Fc1ccc(Cn2cc3c(-c4ccc(F)cc4)nnc-3c3cc4c(cc32)OCO4)cc1`, the EC50 result was “inactive”.

`COc1cccc(OC)c1-c1nc(C(=O)N[C@@H](CC(C)C)C(=O)O)cn1-c1ccnc2cc(Cl)ccc12`: the EC50 is > 80 µM (inactive).

For `COc1cc2nc(C3CCC3)nc(N3CCN(c4ccccc4[N+](=O)[O-])CC3)c2cc1OC`, the EC50 was > 80 µM (inactive).

For the compound `COc1cc2nc(C3CCCC3)nc(N3CCN(c4ccccc4OC)CC3)c2cc1OC`, the EC50 is > 80 µM (inactive).

As to `COc1cc2c3nnc(-c4ccc(F)cc4)c-3cn(Cc3ccccc3)c2cc1OC`, the EC50 is 9.39 µM and 7.28 µM.

Take `COc1cc2nc(C3CC3)nc(N3CCN(c4ccccc4OC)CC3)c2cc1OC`: the EC50 is > 80 µM (inactive).

As to `CCCc1nc(N2CCN(c3ccccc3OC)CC2)c2cc(OC)c(OC)cc2n1`, the EC50 is > 80 µM (inactive).

`COc1ccc(Cn2cc3c(-c4ccc(F)cc4)nnc-3c3cc(OC)c(OC)cc32)cc1`: the EC50 is 14.7 µM.

For the compound `CCOc1ccc(-c2nnc3c4cc(OC)c(OC)cc4n(Cc4ccc(C)cc4)cc2-3)cc1`, the EC50 was > 80 µM (inactive).

With `COc1cccc(OC)c1-c1nc(C(=O)N[C@H](CC(C)C)C(=O)O)cn1-c1ccnc2cc(Cl)ccc12`, the EC50 was > 80 µM (inactive).

For the compound `CCc1nc(N2CCN(c3ccccc3OC)CC2)c2cc(OC)c(OC)cc2n1`, the EC50 is > 80 µM (inactive).

For the compound `COc1cc2c3nnc(-c4ccc(F)cc4)c-3cn(Cc3ccncc3)c2cc1OC`, the EC50 is > 80 µM (inactive).

With `COc1cc2c3nnc(-c4ccc(F)cc4)c-3cn(Cc3ccccc3F)c2cc1OC`, the EC50 is 3.61 µM.
